{
  "source": "patent US10004753B2",
  "about": "“Methods for treating tauopathy” (The J. David Gladstone Institutes, priority 2015, dated 2018)",
  "key": {"PS19 mice [1]": {"tested_on": "PS19 mice", "test": "Western blot of ac-tau, p-tau, t-tau, p300 and ac-H2A in hippocampal/brain lysate", "format": "in vivo, mouse", "excerpt": "The levels of ac-tau and phospho-tau in the hippocampal lysate of PS19 mice were examined (FIG. 5A).\nSalsalate treatment in PS19 mice inhibits p300 activity and reduces tau acetylation. (FIG. 5A) Representative Western blot showing levels of ac-tau, p-tau, t-tau and GAPDH in brain lysate of PS19 mice treated with salsalate (SSA) or vehicle (veh). Wild-type (WT) littermates treated with vehicle and tau knockout (KO) mice were included as controls. (FIG. 5B) Quantification of ac-tau and p-tau levels in brain lysate of PS19 mice treated with vehicle or salsalate. ac-tau/t-tau and p-tau/t-tau in vehicle-treated group were set as 1. n=8. **, p<0.01 (two-tails unpaired t-test). Error bar, S.E.M. (FIG. 5C) Representative Western blot showing levels of p300, ac-H2A(K5), H2A and GAPDH in brain lysate of PS19 mice treated with salsalate (SSA) or vehicle (veh). (FIG. 5D) Quantification of p300 and ac-H2A levels in brain lysate of PS19 mice treated with vehicle or salsalate. p300/GAPDH and ac-H2A/H2A in vehicle-treated group were set as 1. n=8. *, p<0.05 (two-tails unpaired t-test). Error bar, S.E.M."}, "PS19 mice [2]": {"tested_on": "PS19 mice", "test": "NFT analysis by Gallyas silver staining", "format": "in vivo, mouse", "conditions": "female and male cohorts, age 10-11 months", "excerpt": "FIGS. 12A and 12B provide silver staining results in neurites from neocortex and hippocampal regions for mice treated with SSA. Analysis of NFTs by Gallyas silver staining (FIG. 12A) and quantification of silver-positive cells in neurites from neocortex and hippocampal regions CA1 and CA3 (FIG. 12B) in vehicle-treated NTG mice and PS19 mice treated with vehicle or SSA. Scale bar, 250 μm (c, top); 25 μm (c, middle and bottom); n=8 mice (age 10-11 months) per genotype per treatment; *P<0.05, unpaired Student's t-test. Values are mean±s.e.m.\nProminent NFTs and dystrophic neurites, positive for Gallyas silver staining, were detected throughout the forebrains in PS19 mice (FIG. 12A)."}, "[3]": {"test": "PK analyses of salsalate (SSA) and salicylic acid (SA) in brain and plasma", "format": "in vivo, C57B6 mice", "conditions": "oral gavage, single bolus dose, mice", "description": "SSA was administered to C57B6 mice via oral gavage as a single bolus dose. Mice were sacrificed at predetermined time points and plasma and brain tissue samples were harvested for analysis by PPL labs (Redwood City, Calif., USA). SSA and its metabolite SA were measured simultaneously using oxopropanoyloxy benzoic acid as an internal standard solution. To extract SSA/SA from brain, 200 μl of 50% Acetonitrile in 0.1% formic acid was added to 30-50 mg of cortical tissue, followed by homogenization and vortexing. After addition of 200 μl of the internal standard solution, the samples were centrifuged and the supernatants were transferred for injection. To measure SSA/SA in the plasma, 10 μl of plasma samples were mixed with 90 μl H2O and 100 μl of Internal Standard Solution, followed by centrifugation and injection. HPLC was performed using a C18 column following a gradient program (10% to 90% acetonitrile over a period of 6 min) with a flow rate of 0.4 ml/min. The injection volume was ˜5 μl. Mass spectrometry analyses were performed on 3200 Q TRAP system (AB SCIEX, Framingham, Mass. USA.) using an MQL algorithm."}, "AAV-K174Q-injected mice": {"tested_on": "AAV-K174Q-injected mice", "test": "SSA treatment of AAV-K174Q-injected mice", "format": "in vivo, mouse", "excerpt": "FIG. 8 provides (Left) an immunoblot analysis of ac-H2AK5, H2A, p-tau (AT8 and PHF-1), t-tau (HT7) and GAPDH in mice infected with AAV-K174Q and treated with SSA or vehicle; and (Right) a graph depicting the results of a quantification of ac-H2AK5 and H2A. n=11 (vehicle) or 10 (SSA) mice; *P<0.05, unpaired Student's t-test; values are mean±s.e.m.\nELISA analysis of K174Q tau after SSA treatment. n=11 (vehicle) or 10 (SSA) mice; ns, not significant; P=0.3647; unpaired Student's t-test; values are mean±s.e.m.\nFIG. 10 provides graphs showing that levels of PHF1-positive p-tau relative to t-tau, or AT8-positive p-tau normalized by t-tau or GAPDH, were not affected by SSA treatment. Levels of PHF-1-positive p-tau normalized to HT7 (left) or AT8-positive p-tau normalized to HT7 (middle) or GAPDH (right) after SSA treatment. n=11 (vehicle) or 10 (SSA) mice; ns, not significant, unpaired Student's t-test. Values are mean±s.e.m.\nNissl staining (left) and hippocampal volume (right) in mice expressing K174Q tau after SSA treatment. Scale bars, 500 μm; n=11 (vehicle) or 10 (SSA) mice; ns, not significant, unpaired Student's t-test. Values are mean±s.e.m.\nFor AAV-Tau (adeno-associated virus encoding Tau) injection experiments, only male mice were purchased from Jackson Laboratory with the same age and genetic background (C57BL/6) and used for all the experiments. The mice were housed in a pathogen-free barrier facility at UCSF with a 12-h light/dark cycle and ad libitum access to food and water. All behavior experiments were performed during daylight hours. All animal procedures were carried out under University of California, San Francisco, Institutional Animal Care and Use Committee-approved guidelines.\nTo determine if SSA's beneficial effects involve inhibition of ac-K174 in vivo. Two-month after injecting with AAV-K174Q, mice were treated with SSA daily as previously performed in PS19 mice. Ac-H2AK5 levels were reduced in the SSA-treated group, confirming inhibition of p300 by SSA (FIG. 8). […] Levels of PHF1-positive p-tau relative to t-tau, or AT8-positive p-tau normalized by t-tau or GAPDH, were also not affected by SSA treatment (FIG. 10)."}, "PS19 mice [4]": {"tested_on": "PS19 mice", "test": "Hippocampal volume and NeuN-positive cell number", "format": "in vivo, mouse", "conditions": "10 months old PS19 mice vs wild-type littermates", "excerpt": "The neurodegeneration phenotype of PS19 mice was examined by measuring hippocampal volume and NeuN-positive cell number. […] (FIG. 4A) 10 months old PS19 mice have significant hippocampal volume loss compared to wild-type, which is absent in SSA-treated group. Left. Representative nissl staining of hippocampus from vehicle-treated WT, vehicle-treated PS19 and SSA-treated PS19 mice. ***, p<0.001, *, p<0.05 (two-tails unpaired t-test). Error bar, S.E.M. Scale bar, 500 um. (FIG. 4B) 10 months old PS19 mice have significant reduction of NeuN-positive cells compared to wild-type, which is absent in SSA-treated group. Left. Representative NeuN staining of hippocampus from vehicle-treated WT, vehicle-treated PS19 and SSA-treated PS19 mice. **, p<0.01 (two-tails unpaired t-test). Error bar, S.E.M. (FIG. 4C) NeuN number positively correlates with time spent in target quadrant in dry maze. p=0.0142 (linear regression)."}, "PS19 mice [5]": {"tested_on": "PS19 mice", "test": "Fixed Location Dry Maze", "format": "in vivo, mouse", "conditions": "225 mg/kg oral gavage for 8 weeks; 7-8 month old PS19 mice", "description": "For SSA treatment experiments, only female PS19 mice obtained from Jackson Laboratory were used. The mice were housed in a conventional facility at Stanford University (Palo Alto, Calif.<USA) with a 12-h light/dark reverse cycle and ad libitum access to food and water. All behavior experiments of PS19 mice were performed during daylight hours and carried out under Stanford University School of Medicine, Institutional Animal Care and Use Committee-approved guidelines.\nThe Fixed Location Dry Maze is also called DMP dry maze (Faizi, M., et al. Brain Behav 2, 142-154 (2012)). Experiments were performed at an animal facility at Stanford University (Palo Alto, Calif.). Mice were housed at a standard temperature (22±1° C.), in a reverse light-controlled environment (lights off from 8:30 am to 8:30 pm) with ad libitum access to food and water. Animals are group-housed with minimal enrichment such as shelter (paper towel tubes and nestlets). The experimenter remained blinded to the experimental groups throughout the entire study. […] The subjects were monitored by a video tracking system directly above maze, and the parameters were measured using the computer software Ethovision. […] Time in each quadrant was recorded and memory was assessed by the time spent in the target quadrant versus the other three quadrants. […]"}, "[6]": {"tested_on": "primary neurons, K174Q tau", "test": "Tau-lowering effect of salicylate on K174Q mutant tau in primary neurons", "format": "cell-based", "conditions": "K174 mutated to glutamine"}, "p300": {"target": "p300 (Homo sapiens, UniProt Q09472)", "sequence (Q09472 whole entry, species assumed)": "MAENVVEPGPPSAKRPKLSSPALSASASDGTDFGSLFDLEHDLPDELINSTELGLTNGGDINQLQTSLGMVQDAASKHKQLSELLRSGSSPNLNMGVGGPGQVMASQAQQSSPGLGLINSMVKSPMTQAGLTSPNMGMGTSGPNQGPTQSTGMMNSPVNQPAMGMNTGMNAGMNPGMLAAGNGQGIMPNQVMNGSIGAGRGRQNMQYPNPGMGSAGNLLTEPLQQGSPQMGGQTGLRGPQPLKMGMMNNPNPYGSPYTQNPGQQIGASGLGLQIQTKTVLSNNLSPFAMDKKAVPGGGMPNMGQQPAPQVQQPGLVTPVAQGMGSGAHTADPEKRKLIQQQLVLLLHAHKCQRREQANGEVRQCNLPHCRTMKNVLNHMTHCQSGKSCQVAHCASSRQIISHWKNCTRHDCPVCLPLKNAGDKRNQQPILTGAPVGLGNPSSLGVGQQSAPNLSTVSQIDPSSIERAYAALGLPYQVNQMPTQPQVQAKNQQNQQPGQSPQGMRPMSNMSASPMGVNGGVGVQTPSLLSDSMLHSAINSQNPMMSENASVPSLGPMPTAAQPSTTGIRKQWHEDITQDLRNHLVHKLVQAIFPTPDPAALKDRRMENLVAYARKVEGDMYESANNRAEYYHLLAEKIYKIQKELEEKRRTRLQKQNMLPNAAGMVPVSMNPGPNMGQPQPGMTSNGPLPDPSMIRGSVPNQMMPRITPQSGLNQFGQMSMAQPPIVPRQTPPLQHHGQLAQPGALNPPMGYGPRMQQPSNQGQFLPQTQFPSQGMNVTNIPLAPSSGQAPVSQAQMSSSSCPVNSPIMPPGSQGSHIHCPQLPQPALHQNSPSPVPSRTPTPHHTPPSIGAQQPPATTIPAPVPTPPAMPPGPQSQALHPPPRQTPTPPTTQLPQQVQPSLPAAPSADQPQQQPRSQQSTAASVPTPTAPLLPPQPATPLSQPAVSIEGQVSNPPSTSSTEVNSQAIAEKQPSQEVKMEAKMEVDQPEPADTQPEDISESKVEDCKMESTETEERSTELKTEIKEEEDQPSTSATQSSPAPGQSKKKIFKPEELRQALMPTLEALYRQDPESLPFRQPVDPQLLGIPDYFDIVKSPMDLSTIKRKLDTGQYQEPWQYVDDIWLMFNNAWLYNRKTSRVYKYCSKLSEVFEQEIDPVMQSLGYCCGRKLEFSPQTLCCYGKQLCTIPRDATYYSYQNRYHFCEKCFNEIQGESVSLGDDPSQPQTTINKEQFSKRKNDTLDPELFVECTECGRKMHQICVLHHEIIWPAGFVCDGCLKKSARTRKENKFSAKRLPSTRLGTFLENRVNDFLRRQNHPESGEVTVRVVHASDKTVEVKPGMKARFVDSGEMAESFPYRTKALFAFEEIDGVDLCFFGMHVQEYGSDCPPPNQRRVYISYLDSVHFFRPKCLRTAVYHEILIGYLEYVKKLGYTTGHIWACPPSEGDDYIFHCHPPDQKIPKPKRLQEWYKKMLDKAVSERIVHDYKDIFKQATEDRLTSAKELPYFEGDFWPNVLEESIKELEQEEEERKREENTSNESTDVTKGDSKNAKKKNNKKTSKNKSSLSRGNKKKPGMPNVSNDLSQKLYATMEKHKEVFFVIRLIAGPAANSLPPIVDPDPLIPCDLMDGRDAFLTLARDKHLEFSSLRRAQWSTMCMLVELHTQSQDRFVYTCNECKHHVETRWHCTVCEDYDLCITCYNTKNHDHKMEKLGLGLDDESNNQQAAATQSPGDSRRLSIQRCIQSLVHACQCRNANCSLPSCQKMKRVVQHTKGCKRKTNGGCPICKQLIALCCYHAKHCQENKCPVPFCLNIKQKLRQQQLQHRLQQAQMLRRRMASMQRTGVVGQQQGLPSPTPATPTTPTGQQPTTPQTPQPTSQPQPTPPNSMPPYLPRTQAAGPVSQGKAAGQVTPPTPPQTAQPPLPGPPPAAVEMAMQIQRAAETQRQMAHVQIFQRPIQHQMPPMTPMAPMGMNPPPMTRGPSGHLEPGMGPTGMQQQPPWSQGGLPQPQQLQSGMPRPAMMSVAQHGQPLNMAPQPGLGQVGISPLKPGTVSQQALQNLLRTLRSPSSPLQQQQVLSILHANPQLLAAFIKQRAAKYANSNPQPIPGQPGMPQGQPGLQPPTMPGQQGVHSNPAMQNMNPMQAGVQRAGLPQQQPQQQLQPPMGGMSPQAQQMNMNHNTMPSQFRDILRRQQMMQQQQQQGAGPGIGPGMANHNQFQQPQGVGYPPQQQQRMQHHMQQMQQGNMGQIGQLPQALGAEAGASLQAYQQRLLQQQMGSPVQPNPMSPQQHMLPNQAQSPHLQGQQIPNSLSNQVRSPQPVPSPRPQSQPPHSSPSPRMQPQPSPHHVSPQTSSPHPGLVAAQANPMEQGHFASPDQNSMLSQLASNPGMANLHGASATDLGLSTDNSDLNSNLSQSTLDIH", "conditions": "recently identified; cited from earlier work"}, "[7]": {"tested_on": "HEK293 cells overexpressing hTau (WT) and p300", "test": "Ac-tau and p-tau Western blot in HEK293 cells treated with salicylate", "format": "cell-based, human", "conditions": "0, 5, 10 mM salicylate for 24 hr", "description": "To examine the effects of salicylate treatment on tau acetylation and phosphorylation, HEK293 cells overexpressing hTau (WT) and p300 were treated with sodium salicylate (SS).\nFIGS. 1A-1D. Salicylate inhibits p300 and reduces ac-tau and p-tau in vitro (FIG. 1A) HEK293 cells overexpressing wild-type human tau were treated with 0, 5, 10 mM salicylate for 24 hr. Representative Western blot of four experiments. (FIG. 1B) Quantification of ac-tau and p-tau levels in HEK293 cells treated with salicylate. ac-tau/t-tau, p-tau/t-tau in non-treated cells were set as 1. n=4. **, p<0.01, ***, p<0.001 (two-tails unpaired t-test). Error bar, S.E.M. (FIG. 1C) Rat primary cortical neurons infected with lenti-hTau (WT) were treated with 0, 5, or 10 mM salicylate for 24 hr. Representative Western blot of four experiments. (FIG. 1D) Quantification of ac-tau, p-tau and p300 levels in primary neurons treated with salicylate. ac-tau/t-tau, p-tau/t-tau and p300/GAPDH in non-treated cells were set as 1. n=4. *, p<0.05, **, p<0.01, ***, p<0.001 (two-tails unpaired t-test). Error bar, S.E.M."}, "[8]": {"conditions": "brain lysate of PS19 mice, vs vehicle"}, "[9]": {"conditions": "hippocampal lysate of PS19 mice, vs vehicle-treated group"}, "[10]": {"conditions": "AAV-K174Q-injected mice, vs vehicle"}},
  "data": [
    {"smiles": "O=C(Oc1ccccc1C(=O)O)c1ccccc1O", "note": "[salsalate]", "values": [
      {"measurement": "t-tau levels in PS19 mice", "setting": "PS19 mice [1]; PS19 mice", "value": "tau-lowering effects"},
      {"measurement": "p300 HAT activity as measured by levels of histone acetylation (ac-H2A/H2A)", "setting": "PS19 mice [1]; [8]", "value": "significant reduction of p300 HAT activity"},
      {"measurement": "p300 levels (p300/GAPDH)", "setting": "PS19 mice [1]; [8]", "value": "trend of reduction in p300 levels"},
      {"measurement": "AT-8 positive phospho-tau levels (p-tau/t-tau)", "setting": "PS19 mice [1]; [9]", "value": "trend of reduction in AT-8 positive phospho-tau levels, although the difference was not significant"},
      {"measurement": "ac-tau levels (ac-tau/t-tau)", "setting": "PS19 mice [1]; [9]", "value": "significantly lower ac-tau levels"},
      {"measurement": "Number of Gallyas silver-positive neurons and neurites in cortex and hippocampus", "setting": "PS19 mice [2]", "value": "reduced the number of Gallyas silver-positive neurons and neurites"},
      {"measurement": "Brain penetration", "setting": "[3]", "value": "readily penetrates into the brain"},
      {"measurement": "Ac-H2AK5 levels", "setting": "AAV-K174Q-injected mice; AAV-K174Q-injected mice, SSA daily, vs vehicle", "value": "reduced"},
      {"measurement": "AT8-positive p-tau normalized by t-tau or GAPDH", "setting": "AAV-K174Q-injected mice; [10]", "value": "not affected"},
      {"measurement": "Hippocampal atrophy (hippocampal volume)", "setting": "AAV-K174Q-injected mice; [10]", "value": "failed to prevent/reduce hippocampal atrophy"},
      {"measurement": "PHF1-positive p-tau relative to t-tau", "setting": "AAV-K174Q-injected mice; [10]", "value": "not affected"},
      {"measurement": "Levels of t-tau (ELISA)", "setting": "AAV-K174Q-injected mice; K174Q injected mice, vs vehicle treated controls", "value": "failed to reduce levels of t-tau"},
      {"measurement": "Hippocampal volume", "setting": "PS19 mice [4]", "value": "did not show any hippocampal volume loss"},
      {"measurement": "Number of NeuN-positive cells in hippocampal section", "setting": "PS19 mice [4]", "value": "did not show any significant difference compared to wild-type"},
      {"measurement": "Memory retention in probe trial (time in target vs non-target quadrant)", "setting": "PS19 mice [5]", "value": "significantly rescued the deficit"},
      {"measurement": "Spatial learning (learning curve)", "setting": "PS19 mice [5]", "value": "did not rescue the learning deficit"}
    ]},
    {"smiles": "O=C(O)c1ccccc1O", "note": "[salicylate, Salicylic acid]", "values": [
      {"measurement": "Tau-lowering effect with K174Q mutation", "setting": "[6]", "value": "abolished the tau-lowering effects"},
      {"measurement": "p300 inhibition", "setting": "p300", "value": "p300 inhibitor"},
      {"measurement": "AT8-positive phospho-tau level (p-tau/t-tau)", "setting": "[7]", "value": "reduced"},
      {"measurement": "Ac-tau level (ac-tau/t-tau)", "setting": "[7]", "value": "significantly reduced by salicylate in a dose-dependent manner"}
    ]}
  ]
}
